Assay results: patent US9650339B2, “Inhibitors of histone demethylases” (Gilead Sciences, Inc., priority 2013, dated 2017)

Key:
KDM2B (FBXL10) = molecular target: T1, KDM2B (FBXL10) (Homo sapiens, UniProt Q8NHM5); assay: Histone lysine demethylase AlphaLISA assay, KDM2B; type: biochemical; settings: read-out: KDM2B HDME Inhibition IC50
T1 sequence (Q8NHM5 1-650): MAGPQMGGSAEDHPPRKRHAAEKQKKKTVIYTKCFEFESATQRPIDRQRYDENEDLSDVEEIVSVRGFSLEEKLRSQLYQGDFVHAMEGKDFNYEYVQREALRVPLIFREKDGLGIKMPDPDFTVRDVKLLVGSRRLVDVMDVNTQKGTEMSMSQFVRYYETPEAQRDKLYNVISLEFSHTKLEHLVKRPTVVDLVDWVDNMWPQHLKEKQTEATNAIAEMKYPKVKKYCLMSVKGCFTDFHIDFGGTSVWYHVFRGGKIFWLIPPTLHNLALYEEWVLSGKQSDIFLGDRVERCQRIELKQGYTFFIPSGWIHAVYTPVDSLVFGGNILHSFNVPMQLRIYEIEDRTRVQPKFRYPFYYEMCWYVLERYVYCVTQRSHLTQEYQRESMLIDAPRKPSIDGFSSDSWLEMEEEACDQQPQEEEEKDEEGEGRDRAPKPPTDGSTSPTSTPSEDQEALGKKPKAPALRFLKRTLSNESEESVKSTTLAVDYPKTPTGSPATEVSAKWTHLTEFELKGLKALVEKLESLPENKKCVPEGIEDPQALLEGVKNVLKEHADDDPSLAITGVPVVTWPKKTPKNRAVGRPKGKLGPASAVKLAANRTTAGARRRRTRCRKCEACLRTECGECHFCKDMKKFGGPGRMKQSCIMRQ
Protocol: (§1) Assays are performed analogously to the protocol described by PerkinElmer (Roy et al. PerkinElmer Technical Note: AlphaLISA #12, April 2011)
(§2) Enzymes are dissolved in enzyme buffer and incubated for 10 min before being added to 3% DMSO solutions of compounds in enzyme buffer. Incubated for another 10 minutes, before substrate solution is added and the reaction mixture is incubated at room temperature. 10 μL acceptor beads, suspended in Epigenetic Buffer (Perkin Elmer AL008) from stock, are added and the suspension is incubated in the dark at room temperature, before a suspension of streptavidin donor beads (Perkin Elmer 6760002) in Epigenetic Buffer is added. After incubation at room temperature in the dark the plates are read. […]
BH3K36M2: RKAAPATGGVK(Me2)KPHRYRPGTVK-(BIOTIN)? (Anaspec)
(§3) Substrate Solution: Substrate, 25 μM L-Asc, and 10 μM α-KG in Buffer A.

KDM4C (JMJD2C) = molecular target: T2, KDM4C (JMJD2C) (Homo sapiens, UniProt Q9H3R0); assay: Histone lysine demethylase AlphaLISA assay, KDM4C; type: biochemical; settings: read-out: KDM4C HDME Inhibition IC50
T2 sequence (Q9H3R0 1-349): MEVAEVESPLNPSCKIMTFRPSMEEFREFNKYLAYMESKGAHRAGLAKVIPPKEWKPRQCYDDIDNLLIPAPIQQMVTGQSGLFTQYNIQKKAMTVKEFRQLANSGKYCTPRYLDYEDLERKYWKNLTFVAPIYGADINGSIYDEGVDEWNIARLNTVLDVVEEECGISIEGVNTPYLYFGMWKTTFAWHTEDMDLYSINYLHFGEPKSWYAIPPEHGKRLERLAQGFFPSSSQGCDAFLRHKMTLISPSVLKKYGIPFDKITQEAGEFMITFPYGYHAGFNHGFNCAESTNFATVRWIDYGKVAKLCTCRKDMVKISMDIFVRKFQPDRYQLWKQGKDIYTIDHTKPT
Protocol: as §1
Enzymes are dissolved in enzyme buffer and incubated for 10 min before being added to 3% DMSO solutions of compounds in enzyme buffer. Incubated for another 10 minutes, before substrate solution is added and the reaction mixture is incubated at room temperature. 10 μL acceptor beads, suspended in Epigenetic Buffer (Perkin Elmer AL008) from stock, are added and the suspension is incubated in the dark at room temperature, before a suspension of streptavidin donor beads (Perkin Elmer 6760002) in Epigenetic Buffer is added. After incubation at room temperature in the dark the plates are read.
BK9M3: Biotin-ARTKQTAR(KMe3)STGGKAPRKQ-NH2 (Caslo, Denmark) […]
as §3

KDM5B (PLU-1) = molecular target: T3, KDM5B (PLU-1) (Homo sapiens, UniProt Q9UGL1); assay: Histone lysine demethylase AlphaLISA assay, KDM5B; type: biochemical; settings: read-out: KDM5B HDME Inhibition IC50
T3 sequence (Q9UGL1 1-809): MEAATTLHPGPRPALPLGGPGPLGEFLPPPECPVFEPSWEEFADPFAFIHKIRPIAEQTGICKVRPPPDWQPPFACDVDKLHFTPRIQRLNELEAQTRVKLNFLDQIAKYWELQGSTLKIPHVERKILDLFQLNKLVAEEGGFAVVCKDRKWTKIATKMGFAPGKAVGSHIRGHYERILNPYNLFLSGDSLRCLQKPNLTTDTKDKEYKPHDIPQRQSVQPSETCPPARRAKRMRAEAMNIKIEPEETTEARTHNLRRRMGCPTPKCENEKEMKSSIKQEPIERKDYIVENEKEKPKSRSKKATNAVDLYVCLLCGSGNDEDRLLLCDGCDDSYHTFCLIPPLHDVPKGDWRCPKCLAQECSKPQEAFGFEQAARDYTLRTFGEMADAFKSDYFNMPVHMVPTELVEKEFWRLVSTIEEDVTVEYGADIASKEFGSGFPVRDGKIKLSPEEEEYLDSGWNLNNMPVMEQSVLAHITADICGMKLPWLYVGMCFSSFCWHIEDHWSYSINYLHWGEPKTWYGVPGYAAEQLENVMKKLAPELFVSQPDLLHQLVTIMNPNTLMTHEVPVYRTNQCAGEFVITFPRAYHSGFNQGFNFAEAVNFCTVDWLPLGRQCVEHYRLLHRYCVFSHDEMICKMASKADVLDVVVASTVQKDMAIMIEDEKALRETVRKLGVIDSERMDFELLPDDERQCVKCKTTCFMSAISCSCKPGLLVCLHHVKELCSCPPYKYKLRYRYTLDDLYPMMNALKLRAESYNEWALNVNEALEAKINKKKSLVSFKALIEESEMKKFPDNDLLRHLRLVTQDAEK
Protocol: as §1, §2
H3K4M3B: H-ART(Kme3)QTARKSTGGKAPRKQLA-NH-Biotin (Caslo, Denmark) […]
as §3

KDM6A (UTX) = KDM6A (UTX) (Homo sapiens, UniProt O15550); assay: Histone lysine demethylase AlphaLISA assay, KDM6A; type: biochemical; settings: read-out: KDM6A HDME Inhibition IC50
Chain of KDM6A (UTX) (O15550 919-1401): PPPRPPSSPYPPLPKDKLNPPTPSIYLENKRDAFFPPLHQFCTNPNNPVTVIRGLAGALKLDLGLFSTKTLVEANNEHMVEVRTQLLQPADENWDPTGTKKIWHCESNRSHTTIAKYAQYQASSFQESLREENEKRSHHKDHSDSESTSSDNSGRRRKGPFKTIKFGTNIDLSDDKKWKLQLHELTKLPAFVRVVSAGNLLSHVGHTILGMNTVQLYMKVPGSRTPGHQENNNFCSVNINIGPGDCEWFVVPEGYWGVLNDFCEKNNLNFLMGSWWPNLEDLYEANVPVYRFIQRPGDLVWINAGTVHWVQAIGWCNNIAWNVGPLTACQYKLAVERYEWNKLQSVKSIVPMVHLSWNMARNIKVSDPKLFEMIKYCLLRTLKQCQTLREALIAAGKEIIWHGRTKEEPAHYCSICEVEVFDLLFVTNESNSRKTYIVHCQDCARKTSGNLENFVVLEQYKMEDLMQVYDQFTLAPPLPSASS
Protocol: as §1, §2
BK27M3: Biotin-ATKAAR(Kme3)SAPATGGVKKPHRY-NH2? (Caslo, Denmark) […]
as §3

KDM7 (PHF8) = molecular target: T4, KDM7 (PHF8) (Homo sapiens, UniProt Q9UPP1); assay: Histone lysine demethylase AlphaLISA assay, KDM7; type: biochemical; settings: read-out: PHF8 HDME Inhibition IC50
T4 construct: KDM7 (PHF8); BRIC; 1-1322; Bac
T4 sequence (Q9UPP1 37-440 limits assumed): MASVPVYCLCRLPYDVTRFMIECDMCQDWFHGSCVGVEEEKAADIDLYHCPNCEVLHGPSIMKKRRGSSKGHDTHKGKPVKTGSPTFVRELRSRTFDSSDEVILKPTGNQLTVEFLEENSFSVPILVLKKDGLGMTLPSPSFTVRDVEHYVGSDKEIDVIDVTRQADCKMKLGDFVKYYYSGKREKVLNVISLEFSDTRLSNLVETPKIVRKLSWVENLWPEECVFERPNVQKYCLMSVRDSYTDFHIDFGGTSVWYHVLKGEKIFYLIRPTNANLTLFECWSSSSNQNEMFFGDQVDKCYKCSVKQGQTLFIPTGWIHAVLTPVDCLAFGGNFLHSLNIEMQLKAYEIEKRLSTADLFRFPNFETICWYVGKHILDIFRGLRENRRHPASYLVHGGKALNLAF
Protocol: as §1, §2
BK9M2: Biotin-ARTKQTAR(KMe2)STGGKAPRKQ-NH2 (AnaSpec 64359)
BK9M1: Biotin-ARTKQTAR(KMe1)STGGKAPRKQ-NH2 (AnaSpec 64358) […]
as §3

H3K4me3 mark = assay: Histone lysine demethylase immunofluorescence assay, non-transfected U2OS cells; type: cell-based; settings: Homo sapiens, staining of the H3K4me3 mark, 20 hours incubation with compound
Protocol: U2OS cells were harvested and seeded into multi well plates into media containing compound. The media used was DMEM containing 5% FBS and pen/strep. 20 hours after incubation of cells with compounds, the cells were washed once in PBS, harvested by fixation with formaldehyde 4% aqueous solution, and washed in PBS. Subsequently, the cells were permeabilized in PBS with 0.2% Triton X-100. Blocking was performed in PBS with 0.2% Triton X-100 and 5% FBS. The cells were incubated with αH3K4me3 primary antibody (Cell Signaling, #9751S) in blocking solution over night at 4° C. After incubation with primary antibody, the cells were washed with PBS, incubated with secondary antibody (Alexa fluor 594 goat anti rabbit IgG, Invitrogen, A11012) and Hoechst, (Sigma, 33342) in blocking solution, and washed again with PBS. Finally, PBS was added and high throughput imaging and analysis were performed by an IN Cell Analyzer 1000 (GE Healthcare). The IC50 values were based on an average measure of the staining of the H3K4me3 mark in cells.

MCF7 cells = assay: Cell proliferation assay MCF7; type: cell-based; settings: MCF7 human breast cancer cells; 120 hours; ATPlite 1 Step
Protocol: MCF7 cells were seeded in multi well plates at a density optimized to give approximately 90% confluent cells at the time of harvest. Cells were incubated for 24 hours before addition of compound. Compounds were diluted in complete medium and added to the plates in duplicates. The final concentration of DMSO was maximum 0.5%. Complete medium used was DMEM with GlutaMAX containing 10% FBS and pen/strep.
120 hours after addition of compounds, the plates were harvested and analyzed by ATPlite 1 Step (Perkin Elmer, cat no 6016739) according to the manufactures recommendation.

[1] = tested on: OPM-2 subcutaneous mouse xenograft model of multiple myeloma; assay: Inhibition of tumor growth in mouse xenograft model; type: in vivo, NOD/SCID mice (Mus Musculus); settings: QD × 4/week × 2
Text: Briefly, NOD/SCID mice γ-irradiated with ^60Co (200 rad) (12 animals/group) were inoculated subcutaneously with 8×10^6 OPM-2 cells assisted with Matrigel. Dosing according to the table below started when tumors reached an average size of ˜100 mm^3 (day 15). Dosing continued until the average size of tumors in the vehicle group reached ˜2000 mm^3 (day 31).
Animals were 7 weeks old female NOD/SCID mice (Mus Musculus), supplied by Beijing HFK Bio-Technology Co. Ltd. (Beijing, china). Body weight was approx. 16-23 g. Before commencement of treatment, all animals were weighed and tumor volumes were measured, and mice were assigned into groups using randomized block design based upon their tumor volumes.
OPM-2 tumor cells were maintained in vitro in RPMI1640 medium supplemented with 20% fetal bovine serum at 37° C. in an atmosphere of 5% CO2 in air. The tumor cells were routinely subcultured twice weekly. The cells growing in an exponential growth phase were harvested and counted for tumor inoculation.
Tumor sizes were measured three times weekly in two dimensions using a caliper, and the volume was expressed in mm^3 using the formula: V=0.5 a×b^2 where a and b were the long and short diameters of the tumor, respectively.

Compound: CCN(CC)CCCCNCc1cc(CNC(=O)C(=O)O)ccn1 [Compound 27, ({[2-({[4-(diethylamino)-butyl]amino}methyl)pyridin-4-yl]methyl}carbamoyl)-formic acid]
- IC50 (KDM2B (FBXL10)): > 2.5 µM
- IC50 (KDM4C (JMJD2C)): > 2.5 µM
- IC50 (KDM5B (PLU-1)): < 0.25 µM
- IC50 (KDM6A (UTX)): > 2.5 µM
- IC50 (KDM7 (PHF8)): > 2.5 µM
- IC50 (H3K4me3 mark): < 0.25 µM
- EC50 (MCF7 cells): 0.25 to 2.5 µM

Compound: CCN(CCN(C)C)C(=O)CNCc1cc(/C=N/CC2(CO)CC2)ccn1 [Compound 88, N-[2-(dimethylamino)-ethyl]-N-ethyl-2-[({4-[({[1-(hydroxymethyl)cyclopropyl]methyl}imino)methyl]pyridin-2-yl}methyl)amino] acetamide]
- IC50 (KDM2B (FBXL10)): > 2.5 µM
- IC50 (KDM4C (JMJD2C)): 0.25 to 2.5 µM
- IC50 (KDM5B (PLU-1)): < 0.25 µM
- IC50 (KDM6A (UTX)): > 2.5 µM
- IC50 (KDM7 (PHF8)): > 2.5 µM
- IC50 (H3K4me3 mark): < 0.25 µM
- EC50 (MCF7 cells): < 0.25 µM

Compound: Nc1cccc2c1CN(C1CCC(=O)NC1=O)C2=O (stereo not shown) [Lenolidomide, reference compound]
- Tumor Volume ([1]; day 15 after inoculation (start of dosing)): 101 ± 12 mm^3
- Tumor Volume ([1]; day 17 after inoculation): 156 ± 26 mm^3
- Tumor Volume ([1]; day 19 after inoculation): 178 ± 36 mm^3
- Tumor Volume ([1]; day 21 after inoculation): 266 ± 56 mm^3
- Tumor Volume ([1]; day 24 after inoculation): 395 ± 92 mm^3
- Tumor Volume ([1]; day 26 after inoculation): 509 ± 116 mm^3
- Tumor Volume ([1]; day 28 after inoculation): 767 ± 169 mm^3
- Tumor Volume ([1]; day 31 after inoculation): 1148 ± 175 mm^3
